Data taken from PubChem BioAssay (NCI).
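All cell lines were grown in 96-well plates and treated with compound for 48 hours. GI50 marks 50% less growth. TGI denotes the concentration required for complete inhibition of growth.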

What was measured:
Experiment in all cases: NCI anticancer screen, dose series, 48 h
A498 renal = system: A498 renal
UO-31 renal = system: UO-31 renal
MDA-MB-468 breast = system: MDA-MB-468 breast
SK-OV-3 ovarian = system: SK-OV-3 ovarian
SF-539 CNS = system: SF-539 CNS
EKVX NSCLC = system: EKVX NSCLC
A549 NSCLC = system: A549 NSCLC
CCRF-CEM leukemia = system: CCRF-CEM leukemia
786-0 renal = system: 786-0 renal
PC-3 prostate = system: PC-3 prostate
MALME-3M melanoma = system: MALME-3M melanoma
MOLT-4 leukemia = system: MOLT-4 leukemia
SF-268 CNS = system: SF-268 CNS
HCT-116 colon = system: HCT-116 colon
HL-60(TB) leukemia = system: HL-60(TB) leukemia
NCI-H23 lung = system: NCI-H23 lung
OVCAR-8 ovarian = system: OVCAR-8 ovarian
OVCAR-3 ovarian = system: OVCAR-3 ovarian
U251 CNS = system: U251 CNS
SR leukemia = system: SR leukemia
SNB-19 CNS = system: SNB-19 CNS
RPMI-8226 leukemia = system: RPMI-8226 leukemia
SK-MEL-28 melanoma = system: SK-MEL-28 melanoma
OVCAR-4 ovarian = system: OVCAR-4 ovarian
UACC-257 melanoma = system: UACC-257 melanoma
HOP-92 NSCLC = system: HOP-92 NSCLC
NCI-H522 lung = system: NCI-H522 lung
SNB-75 CNS = system: SNB-75 CNS
HCC-2998 colon = system: HCC-2998 colon
MCF7 breast = system: MCF7 breast
SK-MEL-5 melanoma = system: SK-MEL-5 melanoma
SN12C renal = system: SN12C renal
LOX IMVI melanoma = system: LOX IMVI melanoma
ACHN renal = system: ACHN renal
NCI-H226 lung = system: NCI-H226 lung
T-47D breast = system: T-47D breast
IGROV1 ovarian = system: IGROV1 ovarian
NCI-H460 lung = system: NCI-H460 lung
SW-620 colon = system: SW-620 colon
SK-MEL-2 melanoma = system: SK-MEL-2 melanoma
RXF 393 renal = system: RXF 393 renal
COLO 205 colon = system: COLO 205 colon
MDA-MB-435 = system: MDA-MB-435
SF-295 CNS = system: SF-295 CNS
CAKI-1 renal = system: CAKI-1 renal
HOP-62 NSCLC = system: HOP-62 NSCLC
TK-10 renal = system: TK-10 renal
HCT-15 colon = system: HCT-15 colon
MDA-MB-231 breast = system: MDA-MB-231 breast
UACC-62 melanoma = system: UACC-62 melanoma
K-562 leukemia = system: K-562 leukemia
OVCAR-5 ovarian = system: OVCAR-5 ovarian
M14 melanoma = system: M14 melanoma
NCI/ADR-RES ovarian = system: NCI/ADR-RES ovarian
KM12 colon = system: KM12 colon
HT29 colon = system: HT29 colon
BT-549 breast = system: BT-549 breast
HS 578T breast = system: HS 578T breast
DU-145 prostate = system: DU-145 prostate

## O=C(Nc1ccc(OCc2ccc(F)cc2)cc1)Nc1ccc(Cl)c(C(F)(F)F)c1
A498 renal
  GI50: 2.16 µM
  TGI: 6.69 µM
UO-31 renal
  GI50: 2.37 µM
  TGI: 10.1 µM
MDA-MB-468 breast
  GI50: 1.85 µM
  TGI: 4.71 µM
SK-OV-3 ovarian
  GI50: 2.28 µM
  TGI: 7.28 µM
SF-539 CNS
  GI50: 3.13 µM
  TGI: 10.1 µM
EKVX NSCLC
  GI50: 2.56 µM
  TGI: 8.33 µM
A549 NSCLC
  GI50: 2.83 µM
  TGI: 12.1 µM
CCRF-CEM leukemia
  GI50: 3.01 µM
  TGI: 11.3 µM
786-0 renal
  GI50: 3.12 µM
  TGI: 11.9 µM
PC-3 prostate
  GI50: 2.21 µM
  TGI: 10.7 µM
MALME-3M melanoma
  GI50: 2.07 µM
  TGI: 5.78 µM
MOLT-4 leukemia
  GI50: 2.74 µM
  TGI: 13.8 µM
SF-268 CNS
  GI50: 3.37 µM
  TGI: 12.1 µM
HCT-116 colon
  GI50: 3.11 µM
  TGI: 10.4 µM
HL-60(TB) leukemia
  GI50: 2.7 µM
  TGI: 7.29 µM
NCI-H23 lung
  GI50: 2.38 µM
  TGI: 7.17 µM
OVCAR-8 ovarian
  GI50: 3.52 µM
  TGI: 13.9 µM
OVCAR-3 ovarian
  GI50: 3.11 µM
  TGI: 10.6 µM
U251 CNS
  GI50: 2.74 µM
  TGI: 10.8 µM
SR leukemia
  GI50: 2.85 µM
  TGI: 12.6 µM
SNB-19 CNS
  GI50: 3.22 µM
  TGI: 11.9 µM
RPMI-8226 leukemia
  GI50: 2.77 µM
  TGI: 21.8 µM
SK-MEL-28 melanoma
  GI50: 3.62 µM
  TGI: 12.7 µM
OVCAR-4 ovarian
  GI50: 2.89 µM
  TGI: 10.3 µM
UACC-257 melanoma
  GI50: 2.2 µM
  TGI: 6.68 µM
HOP-92 NSCLC
  GI50: 1.88 µM
  TGI: 5.78 µM
NCI-H522 lung
  GI50: 3.03 µM
  TGI: 12.3 µM
SNB-75 CNS
  GI50: 1.33 µM
  TGI: 6.2 µM
HCC-2998 colon
  GI50: 3.08 µM
  TGI: 11.2 µM
MCF7 breast
  GI50: 2.25 µM
  TGI: 8.25 µM
SK-MEL-5 melanoma
  GI50: 1.68 µM
  TGI: 3.07 µM
SN12C renal
  GI50: 2.88 µM
  TGI: 10.3 µM
LOX IMVI melanoma
  GI50: 2.79 µM
  TGI: 9.64 µM
ACHN renal
  GI50: 3.21 µM
  TGI: 11 µM
NCI-H226 lung
  GI50: 2.46 µM
  TGI: 7.87 µM
T-47D breast
  GI50: 2.46 µM
  TGI: 10.1 µM
IGROV1 ovarian
  GI50: 4.45 µM
  TGI: 16.2 µM
NCI-H460 lung
  GI50: 2.51 µM
  TGI: 6.68 µM
SW-620 colon
  GI50: 3.31 µM
  TGI: 11.6 µM
SK-MEL-2 melanoma
  GI50: 2.51 µM
  TGI: 7.15 µM
RXF 393 renal
  GI50: 2.57 µM
  TGI: 7.32 µM
COLO 205 colon
  GI50: 1.82 µM
  TGI: 3.37 µM
MDA-MB-435
  GI50: 2.15 µM
  TGI: 4.9 µM
SF-295 CNS
  GI50: 1.89 µM
  TGI: 4.82 µM
CAKI-1 renal
  GI50: 2.56 µM
  TGI: 9.1 µM
HOP-62 NSCLC
  GI50: 3.03 µM
  TGI: 11.4 µM
TK-10 renal
  GI50: 3.83 µM
  TGI: 14.4 µM
HCT-15 colon
  GI50: 2.75 µM
  TGI: 11 µM
MDA-MB-231 breast
  GI50: 2.46 µM
  TGI: 5.84 µM
UACC-62 melanoma
  GI50: 2.25 µM
  TGI: 7.75 µM
K-562 leukemia
  GI50: 3.02 µM
  TGI: > 100 µM
OVCAR-5 ovarian
  GI50: 3.24 µM
  TGI: 12.2 µM
M14 melanoma
  GI50: 2.79 µM
  TGI: 10.4 µM
NCI/ADR-RES ovarian
  GI50: 2.4 µM
  TGI: 8.36 µM
KM12 colon
  GI50: 2.86 µM
  TGI: 8.39 µM
HT29 colon
  GI50: 3.33 µM
  TGI: 14.5 µM
BT-549 breast
  GI50: 2.08 µM
  TGI: 6.1 µM
HS 578T breast
  GI50: 2.88 µM
  TGI: 8.28 µM
DU-145 prostate
  GI50: 3.96 µM
  TGI: 14.3 µM
